Measurements reported in US4543255A, “Carbocyclic analogs of purine 2'-deoxyribofuranosides” (Southern Research Institute, priority 1984, dated 1985).
≈ marks a conversion by molar mass, not a printed value. Entries after “also recorded” stand apart in the source; their conditions may differ. Where two headings read alike, the source gives them in different places.

Key:
[1] = tested on: Herpes Simplex Virus Type 1, Strain 377; experiment: antiviral activity vs herpes simplex virus type 1 (virus-induced cytopathogenic effects in host cells); format: cell-based; conditions: for EC50: Human alphaherpesvirus 1, Vero, read-out: MIC50 (concentration for 50% inhibition of virus-induced cytopathogenic effects); for antiviral activity against HSV-1 (in words): comparisons are with Ara-A (positive control); for VR (Virus Rating): VR ≥1 indicates definite antiviral activity, 0.5-0.9 marginal to moderate
Method: (§1) Certain representatives of Formulas V-VIII have potent antiviral activity and may be useful for the treatment of virus-induced diseases. The antiviral activity of compounds represented by Formulas V-VIII was measured as a virus rating (VR), and the potency (MIC50) was determined as the concentration of the tested compound required to inhibit virus-induced cytopathogenic effects in host cells by 50%. Carbocyclic analogs of 2'-deoxyribofuranosides represented by Formulas V-VIII have unequivocal and generally high activity in inhibiting replication of both type 1 herpes simplex virus (HSV-1) and type 2 herpes simplex virus (HSV-2). […] Notable examples are the carbocyclic analogs of 2,6-diaminopurine 2'-deoxyribofuranoside (Example 5), 2'-deoxyguanosine (Example 6), 2'-deoxythioguanosine (Example 7), 2,6-diamino-8-azapurine 2'-deoxyribofuranoside (Example 9), and 2'-deoxy-8-azaguanosine (Example 10).
(§2) Carbocyclic analogs (Formulas (V-VIII) of 2'-deoxyribofuranoside derivatives of 2-amino-6-substituted-purines and of 2-amino-6-substituted-8-azapurines were tested for antiviral activity against viruses that replicate in mammalian cells growing in cell culture. The results of these tests against herpes simplex viruses are summarized in Table 1. The Virus Rating (VR) is a weighted measurement of antiviral activity determined by the method of Ehrlich et al., Annals of the New York Academy of Science, volume 130, pages 5-16, 1965. In tests carried out by this method, a VR of 0.5-0.9 indicates marginal to moderate antiviral activity, and a VR equal to or greater than 1 indicates definite antiviral activity. The higher the value of VR, the greater is the antiviral activity. The MIC50 (minimum inhibitory concentration, 50%) is the concentration of a test compound required for 50% inhibition of virus-induced cytopathogenic effects. The 2'-deoxyribofuranoside analogs of Examples 4-10 have unequivocal and selective antiviral activity against both type 1 and type 2 strains of herpes simplex virus.
(§3) ^a Antiviral evaluations were performed with HSV1 and HSV2 replicatin
(§4) either in secondary cultures of rabbit kidney cells or in Vero cells.
(§5) ^b 9D-Arabinofuranosyladenine was tesed as a positive control; the
(§6) range of values of VR and MIC50 came from several tests with either
(§7) rabbit kidney cells or Vero cells as the host cells.

[2] = tested on: Herpes Simplex Virus Type 2, Strain MS; experiment: antiviral activity vs herpes simplex virus type 2 (virus-induced cytopathogenic effects in host cells); format: cell-based; conditions: for VR (Virus Rating): VR ≥1 indicates definite antiviral activity, 0.5-0.9 marginal to moderate; for EC50: read-out: MIC50 (concentration for 50% inhibition of virus-induced cytopathogenic effects); for antiviral activity against HSV-2 (in words): comparisons are with Ara-A (positive control)
Method: as §1, §2, §3, §4, §5, §6, §7

[3] = HSV-1 strain 377, rabbit kidney cells or Vero cells
[4] = HSV-2 strain MS, rabbit kidney cells or Vero cells
[5] = Human alphaherpesvirus 2, HSV-2 strain MS, rabbit kidney cells or Vero cells

Row | Compound | MIC50 (concentration for 50% inhibition of virus-induced cytopathogenic effects) [1, 3] [mg/L] | EC50 [1, 3] [mg/L] | VR (Virus Rating) [2, 4] | EC50 [2, 5] [mg/L] | antiviral activity against HSV-1 (in words) [1] | VR (Virus Rating) [1, 3] | antiviral activity against HSV-2 (in words) [2] | EC50 [1] [mg/L] | EC50 ([2]; Human alphaherpesvirus 2, Vero) [mg/L]
1 | Nc1nc(Cl)c2nnn([C@@H]3C[C@H](CO)[C@@H](O)C3)c2n1 (relative stereo) [Example 8, (1α, 2β, 4α)-4-(5-Amino-7-chloro-3H-1,2,3-triazolo[4,5-d]pyrimidin-3-yl)-2-hydroxycyclopentanemethanol] | 1.6 | < 1 | 1.9 | 23 (≈ 80.8 µM) |  |  |  |  | 
2 | Nc1nc2c(ncn2[C@@H]2C[C@H](CO)[C@@H](O)C2)c(=O)[nH]1 (relative stereo) [Example 6, 2-Amino-1,9-dihydro-9-[(1α, 3β, 4α)-3-hydroxy-4-(hydroxymethyl)cyclopentyl]-6H-purin-6-one] |  | < 0.3 | 3.7 | 0.8 (≈ 3.02 µM) | more active (VR=4-5) and more potent (lower MIC50) | ≥ 4.6 | equivalent or superior in activity and potency to Ara-A; also recorded: markedly more effective than was Ara-A |  | 
3 | Nc1nc(N)c2ncn([C@@H]3C[C@H](CO)[C@@H](O)C3)c2n1 (relative stereo) [Example 5, (1α, 2β, 4α)-4-(2,6-Diamino-9H-purin-9-yl)-2-hydroxycyclopentanemethanol] | 0.3 | 0.6 (≈ 2.27 µM) | 2.9 | 2.4 (≈ 9.08 µM) | more active (VR=4-5) and more potent (lower MIC50) |  | equivalent or superior in activity and potency to Ara-A; also recorded: markedly more effective than was Ara-A |  | 
4 | Nc1ncnc2c1ncn2[C@@H]1O[C@H](CO)[C@@H](O)[C@@H]1O [Ara-A, 9D-Arabinofuranosyladenine, reference compound] |  |  | 1.6-2.3 |  |  | 2.5-3.1 |  | 6.4 to 9.8 (≈ 23.9 to 36.7 µM) | 6.4 to 30 (≈ 23.9 to 112 µM)
5 | Nc1nc2c(ncn2[C@@H]2C[C@H](CO)[C@@H](O)C2)c(=S)[nH]1 (relative stereo) [Example 7] | 1.8 | < 3.2 | 1.7 | 32 (≈ 114 µM) | more active (VR=4-5) and more potent (lower MIC50) |  |  |  | 
6 | Nc1nc(Cl)c2ncn([C@@H]3C[C@H](CO)[C@@H](O)C3)c2n1 (relative stereo) [Example 4, (1α, 2β, 4α)-4-(2-Amino-6-chloro-9H-purin-9-yl)-2-hydroxycyclopentanemethanol] |  | 8.1 (≈ 28.5 µM) | 2.0 | 37 (≈ 130 µM) |  | 1.9 |  |  | 
7 | Nc1nc2c(nnn2[C@@H]2C[C@H](CO)[C@@H](O)C2)c(=O)[nH]1 (relative stereo) [Example 10, 5-Amino-3,6-dihydro-3-[(1α, 2β, 4α)-3-hydroxy-4-(hydroxymethyl)cyclopentyl]-7H-1,2,3-triazolo[4,5-d]pyrimidin-7-one] |  | 0.6 (≈ 2.25 µM) | 2.1 | 6.9 (≈ 25.9 µM) | more active (VR=4-5) and more potent (lower MIC50); also recorded: much more effective against HSV-1 than was Ara-A | 4.2 | equivalent or superior in activity and potency to Ara-A; also recorded: at least as effective as Ara-A against HSV-2 |  | 
8 | Nc1nc(N)c2nnn([C@@H]3C[C@H](CO)[C@@H](O)C3)c2n1 (relative stereo) [Example 9, (1α, 2β, 4α)-4-(5,7-Diamino-3H-1,2,3-triazolo[4,5-d]pyrimidin-3-yl)-2-hydroxycyclopentanemethanol] | 2.0 | < 3.2 | 2.3 | 10 (≈ 37.7 µM) | more active (VR=4-5) and more potent (lower MIC50); also recorded: much more effective against HSV-1 than was Ara-A |  | equivalent or superior in activity and potency to Ara-A; also recorded: at least as effective as Ara-A against HSV-2 |  | 
